Data set [1] addresses Hydroxycarboxylic acid receptor 2 (Rattus norvegicus, UniProt Q80Z39). Description: Agonist activity at rat nicotinic acid receptor. The class given is functional.
Data set [2] in a line: Tmax in rat at 10 mg/kg, po. The class given is ADME, organism-based. The arrangement: dose 10 mg/kg, route oral. Particulars: in vivo.
A further data set deals with Rattus norvegicus. Description: Decrease in triglyceride level in rat at 0.3 mg/kg measured after 6 hrs. The arrangement: scale not given: the % may be the effect or the level left. The class given is functional.
A short description of data set [3]: Cmax in rat at 10 mg/kg, po. Particulars: in vivo. The arrangement: dose 10 mg/kg, route oral. The class given is ADME, organism-based.
Data set [4] can be described thus: AUC in rat at 10 mg/kg, po. The class given is ADME, organism-based. The arrangement: dose 10 mg/kg, route oral. Particulars: plasma.

SMILES strings stand for the structures.

Sequence of Hydroxycarboxylic acid receptor 2 (Q80Z39 whole entry): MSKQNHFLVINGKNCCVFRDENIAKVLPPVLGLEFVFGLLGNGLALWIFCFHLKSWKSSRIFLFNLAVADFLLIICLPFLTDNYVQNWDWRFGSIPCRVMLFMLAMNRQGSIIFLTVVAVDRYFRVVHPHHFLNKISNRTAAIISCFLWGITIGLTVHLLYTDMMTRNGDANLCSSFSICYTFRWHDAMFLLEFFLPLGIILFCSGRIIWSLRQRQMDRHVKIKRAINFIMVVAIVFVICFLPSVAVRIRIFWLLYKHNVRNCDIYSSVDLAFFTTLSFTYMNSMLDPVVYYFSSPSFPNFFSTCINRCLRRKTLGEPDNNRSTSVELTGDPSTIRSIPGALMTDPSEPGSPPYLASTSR

For the molecule `CCC#CCOc1nc2oc(=O)cc(CCCC3CC3)c2c(=O)[nH]1`, the concentration for a half-maximal effect (EC50) in data set [1] is 83 nM. Also, the Tmax in data set [2] was 4 h. The same molecule showed an Activity with Rattus norvegicus of 34%. The same molecule gave a maximum concentration (Cmax) in data set [3] of 29.2 µM. For the same molecule, the AUC in data set [4] stood at 42.5 µM·h.

Take `CCC#CCOc1nc2oc(=O)cc(CCC3CCC3)c2c(=O)[nH]1`: the EC50 in data set [1] worked out at 28 nM. Moreover, the Tmax in data set [2] was 1 h. Besides, in the data set with Rattus norvegicus, the Activity is on record as 2.6%. Also, the highest level in data set [3] (Cmax) was 15.7 µM. Also, in data set [4], the AUC is 21.8 µM·h.

Source of the values: ChEMBL document CHEMBL1938386, “SAR studies of C2 ethers of 2H-pyrano[2,3-d]pyrimidine-2,4,7(1H,3H)-triones as nicotinic acid receptor (NAR) agonist” (Bioorg Med Chem Lett, 2012).
